Measurements from paper PMC5218480 (PLoS ONE, 2017).

Test system: MV-4-11 cells
Test: Gene expression microarray analysis (Affymetrix PrimeView) and GSEA
Assay type: cell-based, human
Design: RFU PODN (11730768_x_at) / Fold change /veh PODN (11730768_x_at) / RFU LINC00158 (11744669_a_at) / Fold change /veh LINC00158 (11744669_a_at) / RFU DUSP10 (11751237_a_at) / Fold change /veh DUSP10 (11751237_a_at) / RFU ID3 (11757404_x_at) / Fold change /veh ID3 (11757404_x_at) / RFU PLEKHG5 (11737974_s_at) / Fold change /veh PLEKHG5 (11737974_s_at) / RFU LRRC4B (11730491_at) / Fold change /veh LRRC4B (11730491_at) / RFU GIMAP4 (11747438_a_at) / Fold change /veh GIMAP4 (11747438_a_at) / RFU KRT8 (11758183_x_at) / Fold change /veh KRT8 (11758183_x_at) / RFU CNN1 (11734310_a_at) / Fold change /veh CNN1 (11734310_a_at) / RFU VPS37D (11726825_at) / Fold change /veh VPS37D (11726825_at) / RFU C10orf10 (11716522_x_at) / Fold change /veh C10orf10 (11716522_x_at) / RFU KIR2DL2 /// KIR2DL4 /// KIR2DL5A /// KIR2DL5B /// KIR2DS1 /// KIR2DS2 /// KIR2DS3 /// KIR2DS4 /// KIR3DL3 /// KIR3DL3 /// KIR3DS1 (11738374_at) / Fold change /veh KIR2DL2 /// KIR2DL4 /// KIR2DL5A /// KIR2DL5B /// KIR2DS1 /// KIR2DS2 /// KIR2DS3 /// KIR2DS4 /// KIR3DL3 /// KIR3DL3 /// KIR3DS1 (11738374_at) / RFU C1QL1 (11718748_at) / Fold change /veh C1QL1 (11718748_at) / RFU TMPRSS4 (11747572_a_at) / Fold change /veh TMPRSS4 (11747572_a_at) / RFU HAMP (11756126_x_at) / Fold change /veh HAMP (11756126_x_at) / RFU RNFT2 (11725882_a_at) / Fold change /veh RNFT2 (11725882_a_at) / RFU NR4A2 (11747474_a_at) / Fold change /veh NR4A2 (11747474_a_at) / RFU ABCC12 (11746883_a_at) / Fold change /veh ABCC12 (11746883_a_at) / RFU TMEM136 (11760407_x_at) / Fold change /veh TMEM136 (11760407_x_at) / RFU CLDN22 /// WWC2 (11732394_at) / Fold change /veh CLDN22 /// WWC2 (11732394_at) / RFU HLA-DPB1 (11760878_x_at) / Fold change /veh HLA-DPB1 (11760878_x_at) / RFU SPINT1 (11716480_a_at) / Fold change /veh SPINT1 (11716480_a_at) / RFU GAP43 (11754022_s_at) / Fold change /veh GAP43 (11754022_s_at) / RFU A4GNT (11735810_at) / Fold change /veh A4GNT (11735810_at) / RFU PRB3 (11715151_x_at) / Fold change /veh PRB3 (11715151_x_at) / RFU TUBB4B (11761932_at) / Fold change /veh TUBB4B (11761932_at) / RFU CAPN14 (11732068_a_at) / Fold change /veh CAPN14 (11732068_a_at) / RFU TMCC2 (11721928_a_at) / Fold change /veh TMCC2 (11721928_a_at) / RFU IRGQ (11745062_a_at) / Fold change /veh IRGQ (11745062_a_at) / RFU FAM174B (11720279_a_at) / Fold change /veh FAM174B (11720279_a_at) / RFU TMPRSS4 (11748680_a_at) / Fold change /veh TMPRSS4 (11748680_a_at) / RFU FAM212B (11763350_a_at) / Fold change /veh FAM212B (11763350_a_at) / RFU PLEKHG5 (11743358_a_at) / Fold change /veh PLEKHG5 (11743358_a_at) / RFU ZSCAN30 (11745921_a_at) / Fold change /veh ZSCAN30 (11745921_a_at) / RFU CMKLR1 (11741424_a_at) / Fold change /veh CMKLR1 (11741424_a_at) / RFU LOC101060620 /// MAPK8IP1 (11723275_at) / Fold change /veh LOC101060620 /// MAPK8IP1 (11723275_at) / RFU SPTSSB (11747773_x_at) / Fold change /veh SPTSSB (11747773_x_at) / RFU PRSS12 (11739890_at) / Fold change /veh PRSS12 (11739890_at) / RFU BIN1 (11741810_x_at) / Fold change /veh BIN1 (11741810_x_at) / RFU WNT11 (11732464_a_at) / Fold change /veh WNT11 (11732464_a_at) / RFU C10orf10 (11716521_a_at) / Fold change /veh C10orf10 (11716521_a_at) / RFU C5orf56 (11738089_at) / Fold change /veh C5orf56 (11738089_at) / RFU CYB561 (11721691_x_at) / Fold change /veh CYB561 (11721691_x_at) / RFU ANKRD19P (11752326_a_at) / Fold change /veh ANKRD19P (11752326_a_at) / RFU OR2T12 /// OR2T33 /// OR2T8 (11738714_s_at) / Fold change /veh OR2T12 /// OR2T33 /// OR2T8 (11738714_s_at) / RFU VCAN (11748164_a_at) / Fold change /veh VCAN (11748164_a_at) / RFU JSRP1 (11732532_at) / Fold change /veh JSRP1 (11732532_at) / RFU KRTAP10-11 (11738290_x_at) / Fold change /veh KRTAP10-11 (11738290_x_at) / RFU MYO3A (11730013_a_at) / Fold change /veh MYO3A (11730013_a_at) / RFU EBF3 (11725865_a_at) / Fold change /veh EBF3 (11725865_a_at) / RFU CAMK2N1 (11719241_x_at) / Fold change /veh CAMK2N1 (11719241_x_at) / RFU C5orf56 (11738088_a_at) / Fold change /veh C5orf56 (11738088_a_at) / RFU OLFML3 (11715873_a_at) / Fold change /veh OLFML3 (11715873_a_at) / RFU LOC100653217 /// NTM (11731650_a_at) / Fold change /veh LOC100653217 /// NTM (11731650_a_at) / RFU MAPK11 (11762145_a_at) / Fold change /veh MAPK11 (11762145_a_at) / RFU FIZ1 (11724087_x_at) / Fold change /veh FIZ1 (11724087_x_at) / RFU OASL (11726364_x_at) / Fold change /veh OASL (11726364_x_at) / RFU SOX15 (11748057_x_at) / Fold change /veh SOX15 (11748057_x_at) / RFU CD79A (11719716_a_at) / Fold change /veh CD79A (11719716_a_at) / RFU HIST1H1D (11736915_at) / Fold change /veh HIST1H1D (11736915_at) / RFU CASKIN2 (11723855_a_at) / Fold change /veh CASKIN2 (11723855_a_at) / RFU LOC730098 (11760151_x_at) / Fold change /veh LOC730098 (11760151_x_at) / RFU OR4N2 (11742367_at) / Fold change /veh OR4N2 (11742367_at) / RFU PRRT2 (11749266_a_at) / Fold change /veh PRRT2 (11749266_a_at) / RFU SNX32 (11753110_a_at) / Fold change /veh SNX32 (11753110_a_at) / RFU CDHR5 (11726645_a_at) / Fold change /veh CDHR5 (11726645_a_at) / RFU RCAN1 (11760418_a_at) / Fold change /veh RCAN1 (11760418_a_at) / RFU FAM167A (11723789_a_at) / Fold change /veh FAM167A (11723789_a_at) / RFU FAM26E (11764081_at) / Fold change /veh FAM26E (11764081_at) / RFU ISYNA1 (11749810_s_at) / Fold change /veh ISYNA1 (11749810_s_at) / RFU ACY1 (11761880_at) / Fold change /veh ACY1 (11761880_at) / RFU 11764098_at / Fold change /veh 11764098_at / RFU SAMD14 (11745864_x_at) / Fold change /veh SAMD14 (11745864_x_at) / RFU NPB (11741838_a_at) / Fold change /veh NPB (11741838_a_at) / RFU TMPRSS6 (11731388_a_at) / Fold change /veh TMPRSS6 (11731388_a_at) / RFU KRTAP10-2 (11738614_at) / Fold change /veh KRTAP10-2 (11738614_at) / RFU ARHGAP8 /// PRR5-ARHGAP8 (11727945_x_at) / Fold change /veh ARHGAP8 /// PRR5-ARHGAP8 (11727945_x_at) / RFU KRTAP5-7 /// NADSYN1 (11734609_at) / Fold change /veh KRTAP5-7 /// NADSYN1 (11734609_at) / RFU RASL12 (11751679_a_at) / Fold change /veh RASL12 (11751679_a_at) / RFU CDKN2B (11736163_a_at) / Fold change /veh CDKN2B (11736163_a_at) / RFU PRF1 (11729649_at) / Fold change /veh PRF1 (11729649_at) / RFU, ZNF638 /// ZNF638-IT1 / Fold change vs veh, ZNF638 /// ZNF638-IT1 / RFU, PANK3 / Fold change vs veh, PANK3 / RFU, SH3YL1 / Fold change vs veh, SH3YL1 / RFU, ZEB2 / Fold change vs veh, ZEB2 / RFU, NRIP1 / Fold change vs veh, NRIP1 / RFU, PTTG1IP / Fold change vs veh, PTTG1IP / RFU, CAPN2 / Fold change vs veh, CAPN2 / RFU, MED14 / Fold change vs veh, MED14 / RFU, SNORA58 / Fold change vs veh, SNORA58 / RFU, C1orf63 / Fold change vs veh, C1orf63 / RFU, LRRFIP1 / Fold change vs veh, LRRFIP1 / RFU, NDUFAF7 / Fold change vs veh, NDUFAF7 / RFU, SLC12A2 / Fold change vs veh, SLC12A2 / RFU, IBTK / Fold change vs veh, IBTK / RFU, ESF1 / Fold change vs veh, ESF1 / Fold change vs veh, TMEM50B / RFU, TAOK1 / Fold change vs veh, TAOK1 / RFU, ACBD3 / Fold change vs veh, ACBD3 / RFU, TMA16 / Fold change vs veh, TMA16 / RFU, RWDD3 / Fold change vs veh, RWDD3 / RFU, BCAT1 / Fold change vs veh, BCAT1 / RFU, EDEM3 / Fold change vs veh, EDEM3 / RFU, TMEM33 / Fold change vs veh, TMEM33 / RFU, WDR75 / Fold change vs veh, WDR75 / RFU, AHCTF1 / Fold change vs veh, AHCTF1 / RFU, TFRC / Fold change vs veh, TFRC / RFU, ZDHHC17 / Fold change vs veh, ZDHHC17 / RFU, NOM1 / Fold change vs veh, NOM1 / RFU, ARL8B / Fold change vs veh, ARL8B / RFU, ZBTB11 / Fold change vs veh, ZBTB11 / RFU, TAMM41 / Fold change vs veh, TAMM41 / RFU, KIAA1704 /// LOC100996395 / Fold change vs veh, KIAA1704 /// LOC100996395 / RFU, ING1 / Fold change vs veh, ING1 / RFU, TRMT61B / Fold change vs veh, TRMT61B / RFU, FUBP3 / Fold change vs veh, FUBP3 / RFU, TP53 / Fold change vs veh, TP53 / RFU, TNKS2 / Fold change vs veh, TNKS2 / RFU, ZFP14 / Fold change vs veh, ZFP14 / RFU, ACTR2 / Fold change vs veh, ACTR2 / RFU, PPP3R1 / Fold change vs veh, PPP3R1 / RFU, PIK3R1 / Fold change vs veh, PIK3R1 / RFU, HNRNPA1 / Fold change vs veh, HNRNPA1 / RFU, RNF170 / Fold change vs veh, RNF170 / RFU, ZNF28 / Fold change vs veh, ZNF28 / RFU, RNGTT / Fold change vs veh, RNGTT / RFU, OGT / Fold change vs veh, OGT / RFU, BRD1 / Fold change vs veh, BRD1 / RFU, MARS / Fold change vs veh, MARS / RFU, ZNF655 / Fold change vs veh, ZNF655 / RFU, FAHD1 / Fold change vs veh, FAHD1 / RFU, BDP1 / Fold change vs veh, BDP1 / RFU, LRRCC1 / Fold change vs veh, LRRCC1 / RFU, ARID1A / Fold change vs veh, ARID1A / RFU, ZNF146 / Fold change vs veh, ZNF146 / RFU, ZNF330 / Fold change vs veh, ZNF330 / RFU, GPN3 / Fold change vs veh, GPN3 / RFU, C9orf123 / Fold change vs veh, C9orf123 / RFU, N4BP2L2 / Fold change vs veh, N4BP2L2 / RFU, ARFIP1 / Fold change vs veh, ARFIP1 / RFU, FAM179B / Fold change vs veh, FAM179B / RFU, BCL10 / Fold change vs veh, BCL10 / RFU, UHRF1BP1L / Fold change vs veh, UHRF1BP1L / RFU, BET1 / Fold change vs veh, BET1 / RFU, CNOT2 / Fold change vs veh, CNOT2 / RFU, ZNF268 / Fold change vs veh, ZNF268 / Fold change vs veh, ZNF507 / RFU, DGCR2 / Fold change vs veh, DGCR2 / RFU, WDSUB1 / Fold change vs veh, WDSUB1 / Fold change vs veh, HSP90B1 /// MIR3652 / RFU, ADSS / Fold change vs veh, ADSS / RFU, GK / Fold change vs veh, GK / RFU, ZNF148 / Fold change vs veh, ZNF148 / RFU, TAF9 / Fold change vs veh, TAF9 / RFU, SLC1A5 / Fold change vs veh, SLC1A5 / RFU, SLMO2 / Fold change vs veh, SLMO2 / RFU, ABCC4 / Fold change vs veh, ABCC4 / RFU, LOC101060439 /// RAP1B / Fold change vs veh, LOC101060439 /// RAP1B / RFU, RFX7 / Fold change vs veh, RFX7 / RFU, GTPBP10 / Fold change vs veh, GTPBP10 / RFU, CNEP1R1 / Fold change vs veh, CNEP1R1 / RFU, BIVM-ERCC5 /// ERCC5 / Fold change vs veh, BIVM-ERCC5 /// ERCC5 / RFU, ILF3 / Fold change vs veh, ILF3 / RFU 11762660_at / Fold change /veh 11762660_at / RFU VCAN (11757783_s_at) / Fold change /veh VCAN (11757783_s_at) / RFU DDX43 (11728927_at) / Fold change /veh DDX43 (11728927_at) / RFU KRT8 (11758188_x_at) / Fold change /veh KRT8 (11758188_x_at) / RFU NKD1 (11759106_at) / Fold change /veh NKD1 (11759106_at) / RFU SRD5A1 (11742802_a_at) / Fold change /veh SRD5A1 (11742802_a_at) / RFU TPSAB1 /// TPSB2 (11721975_s_at) / Fold change /veh TPSAB1 /// TPSB2 (11721975_s_at) / RFU GSTM3 (11746129_a_at) / Fold change /veh GSTM3 (11746129_a_at) / RFU IL23R (11737362_x_at) / Fold change /veh IL23R (11737362_x_at) / RFU TMEM51 (11727254_a_at) / Fold change /veh TMEM51 (11727254_a_at) / RFU PIWIL2 (11732686_x_at) / Fold change /veh PIWIL2 (11732686_x_at) / RFU ORM1 (11744905_x_at) / Fold change /veh ORM1 (11744905_x_at) / RFU CCDC152 (11743942_at) / Fold change /veh CCDC152 (11743942_at) / RFU ECM1 (11717891_a_at) / Fold change /veh ECM1 (11717891_a_at) / RFU IL23R (11748794_a_at) / Fold change /veh IL23R (11748794_a_at) / RFU TNFAIP8L3 (11732012_x_at) / Fold change /veh TNFAIP8L3 (11732012_x_at) / RFU MBOAT4 (11741988_at) / Fold change /veh MBOAT4 (11741988_at) / RFU 11764193_at / Fold change /veh 11764193_at / RFU TMEM53 (11763286_at) / Fold change /veh TMEM53 (11763286_at) / RFU MAGEB2 (11727129_at) / Fold change /veh MAGEB2 (11727129_at) / RFU TMEM200A (11744735_a_at) / Fold change /veh TMEM200A (11744735_a_at) / RFU CCDC152 (11751479_a_at) / Fold change /veh CCDC152 (11751479_a_at) / RFU FAM211A (11726209_a_at) / Fold change /veh FAM211A (11726209_a_at) / RFU RGS16 (11746705_a_at) / Fold change /veh RGS16 (11746705_a_at) / RFU VCAN (11755009_s_at) / Fold change /veh VCAN (11755009_s_at) / RFU RHOB (11743442_s_at) / Fold change /veh RHOB (11743442_s_at) / RFU RGS16 (11720943_a_at) / Fold change /veh RGS16 (11720943_a_at) / RFU RGS16 (11720944_at) / Fold change /veh RGS16 (11720944_at) / RFU, VPS4B / Fold change vs veh, VPS4B / RFU, CREB1 / Fold change vs veh, CREB1 / RFU, DNAJC13 / Fold change vs veh, DNAJC13 / RFU, GNAQ / Fold change vs veh, GNAQ / RFU, CDK5R1 / Fold change vs veh, CDK5R1 / RFU, ZRANB3 / Fold change vs veh, ZRANB3 / RFU, CUL4A / Fold change vs veh, CUL4A / RFU, CCNY / Fold change vs veh, CCNY / RFU, UFL1 / Fold change vs veh, UFL1 / RFU, COG3 / Fold change vs veh, COG3 / RFU, DIAPH2 / Fold change vs veh, DIAPH2 / RFU, SKA2 / Fold change vs veh, SKA2 / RFU, AFF3 / Fold change vs veh, AFF3 / RFU, LMF1 / Fold change vs veh, LMF1 / RFU, IPO11 / Fold change vs veh, IPO11 / RFU, DFFB / Fold change vs veh, DFFB / RFU, FOXP1 / Fold change vs veh, FOXP1 / RFU, CARD8 / Fold change vs veh, CARD8 / RFU, STRN3 / Fold change vs veh, STRN3 / RFU, ADK / Fold change vs veh, ADK / RFU, RASSF2 / Fold change vs veh, RASSF2 / RFU, WIPF1 / Fold change vs veh, WIPF1 / RFU, LARP1B / Fold change vs veh, LARP1B / RFU, RASA1 / Fold change vs veh, RASA1 / RFU, RB1 / Fold change vs veh, RB1 / RFU, PPFIA1 / Fold change vs veh, PPFIA1 / RFU, MAT2A / Fold change vs veh, MAT2A / RFU, CCT5 / Fold change vs veh, CCT5 / RFU, WDR92 / Fold change vs veh, WDR92 / RFU, CUX1 / Fold change vs veh, CUX1 / RFU, TTC7A / Fold change vs veh, TTC7A / RFU, TMEM135 / Fold change vs veh, TMEM135 / RFU, DEPTOR / Fold change vs veh, DEPTOR / RFU, CPM / Fold change vs veh, CPM / RFU, DNAJB6 / Fold change vs veh, DNAJB6 / RFU, CACNA2D3 / Fold change vs veh, CACNA2D3 / RFU, DTX4 / Fold change vs veh, DTX4 / RFU, TFCP2 / Fold change vs veh, TFCP2 / RFU, GMCL1 /// GMCL1P1 / Fold change vs veh, GMCL1 /// GMCL1P1 / RFU, AEBP2 / Fold change vs veh, AEBP2 / RFU, SNHG1 /// SNORD22 /// SNORD25 /// SNORD26 /// SNORD27 /// SNORD28 /// SNORD29 /// SNORD31 / Fold change vs veh, SNHG1 /// SNORD22 /// SNORD25 /// SNORD26 /// SNORD27 /// SNORD28 /// SNORD29 /// SNORD31 / Fold change (Aza/veh), C12orf56 (ProbeSet 11735607_a_at) / Fold change (ACY-1035/veh), C12orf56 (ProbeSet 11735607_a_at) / Fold change (Aza/veh), FGFR1OP (ProbeSet 11751329_s_at) / Fold change (ACY-1035/veh), FGFR1OP (ProbeSet 11751329_s_at) / Fold change (Aza/veh), VPS36 (ProbeSet 11739960_a_at) / Fold change (ACY-1035/veh), VPS36 (ProbeSet 11739960_a_at) / RFU SYPL1 (11715823_x_at) / Fold change /veh SYPL1 (11715823_x_at) / RFU IGFBP7 (11715501_s_at) / Fold change /veh IGFBP7 (11715501_s_at) / RFU REEP3 (11722064_at) / Fold change /veh REEP3 (11722064_at) / RFU IGLL1 (11728026_x_at) / Fold change /veh IGLL1 (11728026_x_at): dose or concentration left out as unconfirmed
Conditions: ProbeSet 11753055_s_at; LIST B

Structure (SMILES): Nc1ccc(-c2cccs2)cc1NC(=O)c1ccc2c(c1)cc(C1CC1)n2CCN1CCOCC1 [ACY-1035]
- Fold change vs veh, LOC101060439 /// RAP1B: 0.99
